Assay: xn = mol fraction of the nth substance listed
Conditions: Liquid

CCCCCCCCCCCCCC [tetradecane] + O=C=O
Conditions | mass density [kg/m3]
312.99 K, 19070 kPa, x2 = 0.7534 | 819.95
313 K, 15040 kPa, x2 = 0.7534 | 811.66
313.01 K, 17010 kPa, x2 = 0.7534 | 815.79
313.01 K, 18060 kPa, x2 = 0.7534 | 817.99
313.05 K, 10040 kPa, x2 = 0.7534 | 799.71
313.05 K, 11940 kPa, x2 = 0.7534 | 804.49
313.07 K, 10010 kPa, x2 = 0.2469 | 761.87
313.08 K, 12050 kPa, x2 = 0.2469 | 763.39
313.08 K, 13990 kPa, x2 = 0.2469 | 764.87
313.08 K, 16020 kPa, x2 = 0.2469 | 766.36
313.09 K, 18000 kPa, x2 = 0.2469 | 767.75
313.11 K, 19000 kPa, x2 = 0.2469 | 768.47
313.12 K, 13940 kPa, x2 = 0.7534 | 809.04
313.12 K, 19060 kPa, x2 = 0.8773 | 833.41
313.13 K, 16010 kPa, x2 = 0.7534 | 813.59
313.14 K, 13040 kPa, x2 = 0.7534 | 806.93
313.16 K, 11930 kPa, x2 = 0.5241 | 778.74
313.16 K, 19060 kPa, x2 = 0.5241 | 785.72
313.17 K, 12990 kPa, x2 = 0.8773 | 810.26
313.17 K, 13930 kPa, x2 = 0.5241 | 780.74
313.17 K, 14050 kPa, x2 = 0.8773 | 813.95
313.18 K, 16020 kPa, x2 = 0.8773 | 822.71
313.18 K, 17010 kPa, x2 = 0.8773 | 826.33
313.19 K, 9970 kPa, x2 = 0.8773 | 799.39
313.19 K, 10110 kPa, x2 = 0.5241 | 776.82
313.19 K, 18040 kPa, x2 = 0.8773 | 829.7
313.2 K, 11990 kPa, x2 = 0.8773 | 806.52
313.21 K, 18060 kPa, x2 = 0.5241 | 784.76
313.23 K, 15010 kPa, x2 = 0.8773 | 818.7
313.35 K, 16050 kPa, x2 = 0.5241 | 782.84
323.11 K, 10980 kPa, x2 = 0.8773 | 783.24
323.11 K, 14020 kPa, x2 = 0.2469 | 757.81
323.11 K, 19020 kPa, x2 = 0.8773 | 809.81
323.12 K, 16020 kPa, x2 = 0.2469 | 759.35
323.14 K, 10120 kPa, x2 = 0.2469 | 754.69
323.14 K, 12060 kPa, x2 = 0.2469 | 756.22
323.14 K, 13020 kPa, x2 = 0.8773 | 788.73
323.14 K, 14050 kPa, x2 = 0.8773 | 791.99
323.14 K, 16040 kPa, x2 = 0.8773 | 799.2
323.14 K, 17040 kPa, x2 = 0.8773 | 801.18
323.14 K, 18060 kPa, x2 = 0.8773 | 805.9
323.14 K, 18980 kPa, x2 = 0.2469 | 761.61
323.15 K, 10070 kPa, x2 = 0.7534 | 782.23
323.15 K, 12030 kPa, x2 = 0.7534 | 787.2
323.15 K, 12050 kPa, x2 = 0.8773 | 786.07
323.15 K, 13000 kPa, x2 = 0.7534 | 789.82
323.15 K, 14020 kPa, x2 = 0.7534 | 791.84
323.15 K, 15060 kPa, x2 = 0.7534 | 794.75
323.15 K, 16040 kPa, x2 = 0.7534 | 796.67
323.15 K, 17010 kPa, x2 = 0.7534 | 799.28
323.15 K, 18070 kPa, x2 = 0.7534 | 801.5
323.15 K, 19020 kPa, x2 = 0.7534 | 803.65
323.16 K, 15050 kPa, x2 = 0.8773 | 795.16
323.19 K, 17960 kPa, x2 = 0.2469 | 760.81
323.21 K, 16080 kPa, x2 = 0.5241 | 773.72
323.22 K, 18050 kPa, x2 = 0.5241 | 775.72
323.22 K, 19040 kPa, x2 = 0.5241 | 776.7
323.23 K, 10030 kPa, x2 = 0.5241 | 767.22
323.23 K, 12040 kPa, x2 = 0.5241 | 769.42
323.23 K, 13980 kPa, x2 = 0.5241 | 771.51
333.07 K, 10050 kPa, x2 = 0.7534 | 764.82
333.07 K, 14030 kPa, x2 = 0.7534 | 774.55
333.07 K, 17060 kPa, x2 = 0.7534 | 782.56
333.07 K, 18060 kPa, x2 = 0.7534 | 784.44
333.09 K, 10100 kPa, x2 = 0.5241 | 757.94
333.11 K, 13040 kPa, x2 = 0.7534 | 771.85
333.11 K, 16040 kPa, x2 = 0.2469 | 752.33
333.11 K, 18060 kPa, x2 = 0.5241 | 766.9
333.11 K, 18060 kPa, x2 = 0.8773 | 785.49
333.12 K, 15020 kPa, x2 = 0.7534 | 777.38
333.12 K, 16040 kPa, x2 = 0.7534 | 779.31
333.13 K, 10010 kPa, x2 = 0.2469 | 747.3
333.13 K, 13970 kPa, x2 = 0.2469 | 750.65
333.13 K, 19050 kPa, x2 = 0.8773 | 788.14
333.13 K, 19080 kPa, x2 = 0.5241 | 767.96
333.14 K, 16050 kPa, x2 = 0.8773 | 779.75
333.14 K, 17040 kPa, x2 = 0.8773 | 782.59
333.15 K, 11930 kPa, x2 = 0.5241 | 760.02
333.15 K, 12060 kPa, x2 = 0.2469 | 749.05
333.15 K, 15990 kPa, x2 = 0.5241 | 764.66
333.15 K, 17980 kPa, x2 = 0.2469 | 753.84
333.16 K, 18980 kPa, x2 = 0.2469 | 754.7
333.17 K, 12050 kPa, x2 = 0.7534 | 769.75
333.17 K, 19050 kPa, x2 = 0.7534 | 786.81
333.18 K, 14030 kPa, x2 = 0.8773 | 774.07
333.19 K, 13020 kPa, x2 = 0.8773 | 771.46
333.2 K, 13970 kPa, x2 = 0.5241 | 762.35
333.22 K, 15040 kPa, x2 = 0.8773 | 776.33
343.18 K, 13030 kPa, x2 = 0.7534 | 757.6
343.2 K, 14070 kPa, x2 = 0.7534 | 759.71
343.22 K, 10080 kPa, x2 = 0.5241 | 748.36
343.24 K, 18020 kPa, x2 = 0.2469 | 746.97
343.25 K, 10080 kPa, x2 = 0.2469 | 739.8
343.25 K, 12000 kPa, x2 = 0.2469 | 741.71
343.25 K, 13970 kPa, x2 = 0.5241 | 753.12
343.26 K, 11930 kPa, x2 = 0.5241 | 750.66
343.26 K, 17070 kPa, x2 = 0.8773 | 763.58
343.27 K, 16010 kPa, x2 = 0.2469 | 745.25
343.27 K, 19050 kPa, x2 = 0.2469 | 747.79
343.28 K, 16050 kPa, x2 = 0.8773 | 759.7
343.28 K, 18030 kPa, x2 = 0.7534 | 768.86
343.29 K, 11990 kPa, x2 = 0.7534 | 755.9
343.29 K, 15010 kPa, x2 = 0.8773 | 756.06
343.3 K, 18040 kPa, x2 = 0.8773 | 766.93
343.32 K, 15970 kPa, x2 = 0.7534 | 764.11
343.32 K, 19050 kPa, x2 = 0.8773 | 770.12
343.34 K, 14060 kPa, x2 = 0.2469 | 743.54
343.34 K, 16930 kPa, x2 = 0.7534 | 766.37
343.36 K, 18040 kPa, x2 = 0.5241 | 757.81
343.37 K, 15000 kPa, x2 = 0.7534 | 761.76
343.37 K, 15990 kPa, x2 = 0.5241 | 755.45
343.37 K, 19030 kPa, x2 = 0.7534 | 770.9
343.39 K, 19080 kPa, x2 = 0.5241 | 758.96
353.36 K, 9980 kPa, x2 = 0.5241 | 738.86
353.36 K, 12050 kPa, x2 = 0.7534 | 743.36
353.39 K, 11960 kPa, x2 = 0.5241 | 741.42
353.39 K, 17030 kPa, x2 = 0.7534 | 753.15
353.39 K, 18060 kPa, x2 = 0.5241 | 748.96
353.4 K, 18070 kPa, x2 = 0.2469 | 741.03
353.41 K, 13000 kPa, x2 = 0.7534 | 744.77
353.43 K, 11990 kPa, x2 = 0.2469 | 735.13
353.43 K, 14020 kPa, x2 = 0.5241 | 744.02
353.43 K, 16060 kPa, x2 = 0.5241 | 746.56
353.44 K, 19060 kPa, x2 = 0.5241 | 750.06
353.46 K, 15040 kPa, x2 = 0.7534 | 748.68
353.46 K, 15990 kPa, x2 = 0.7534 | 750.82
353.46 K, 18010 kPa, x2 = 0.8773 | 751.14
353.46 K, 18040 kPa, x2 = 0.7534 | 755.21
353.47 K, 14010 kPa, x2 = 0.7534 | 746.82
353.47 K, 19020 kPa, x2 = 0.2469 | 741.82
353.47 K, 19040 kPa, x2 = 0.8773 | 754.52
353.48 K, 9970 kPa, x2 = 0.2469 | 733.1
353.48 K, 14000 kPa, x2 = 0.2469 | 737.01
353.48 K, 17020 kPa, x2 = 0.8773 | 747.37
353.52 K, 16030 kPa, x2 = 0.2469 | 738.93
353.54 K, 18990 kPa, x2 = 0.7534 | 756.97
